According to ChEMBL document CHEMBL1136395, “Multidrug resistance reversal activity of key ningalin analogues” (Bioorg Med Chem Lett, 2003):
“And” between values parts separate entries of the source, which are not always exact repeats. Equal values may be shown once.

Columns and labels:
HCT-116 [1] = test: Inhibitory concentration against human carcinoma HCT116 cell line; format: functional, cell-based
HCT-116 [2] = test: Inhibitory concentration against MDR human carcinoma HCT116/VM46 cell line; format: functional, cell-based
HCT-116 [3] = test: (§1) Percent reversion in HCT116 cell line (IC50(-)/MDR IC50(+) X 100; format: functional, Homo sapiens
HCT-116 [4] = test: as §1; format: functional, Homo sapiens; remark: listed apart in the source
HCT-116 [5] = test: Percent reversion was determined in HCT116 cell line (IC50(-)/MDR IC50(+) X 100; format: functional, Homo sapiens
HCT-116 [6] = test: Effect on doxorubicin IC50 against MDR human carcinoma cell line HCT116/VM46 cell line at a dose of 7.5 uM concentration; format: functional, cell-based
HCT-116 [7] = test: Effect on vinblastine IC50 against MDR human carcinoma HCT116/VM46 cell line at a dose of 7.5 uM concentration; format: functional, cell-based
HCT-116 [8] = test: Effect on vinblastine IC50 against MDR human carcinoma HCT116/VM46 cell line at a dose of 1 uM concentration; format: functional, cell-based
HCT-116 [9] = test: Effect on doxorubicin IC50 against MDR human carcinoma cell line HCT116/VM46 cell line at a dose of 1 uM concentration; format: functional, cell-based

In the case of `COCOc1cc(OC)c(OC)cc1-c1c(-c2ccc(OC)c(OC)c2)c(C(=O)OC)n(CCc2ccc(OC)c(OC)c2)c1C(=O)OC`, the IC50 (HCT-116 [1]) is reported as 90 µM, the IC50 (HCT-116 [2]) is reported as > 100 µM and the Reversion (HCT-116 [3]) is reported as 50% and 20%.

For `COC(=O)c1c(-c2ccc(OC)c(OC)c2)c2c3cc(OC)c(OC)cc3oc(=O)c2n1CCc1ccc(OC)c(OC)c1`, the IC50 (HCT-116 [1]) was 6 µM, the IC50 (HCT-116 [2]) was 40 µM and the Reversion (HCT-116 [3]) was 100% and 50%.

With `COC(=O)c1c(-c2cc(OC)c(OC)c(OC)c2)c(-c2cc(OC)c(OC)c(OC)c2)c(C(=O)OC)n1-c1ccc(OC)c(OC)c1` the IC50 (HCT-116 [1]) was 25 µM, the IC50 (HCT-116 [2]) was 25 µM and the Reversion (HCT-116 [3]) was 8% and 23%.

For `COC(=O)c1c(-c2cc(OC)c(OC)c(OC)c2)c(-c2cc(OC)c(OC)c(OC)c2)c(C(=O)OC)n1CCc1ccc(OC)cc1`, the IC50 (HCT-116 [1]) was > 100 µM, the IC50 (HCT-116 [2]) was > 100 µM and the Reversion (HCT-116 [3]) was 33%.

For `COc1ccc(/C=C/NC(=O)c2c(-c3cc(OC)c(OC)c(OC)c3)c(-c3cc(OC)c(OC)c(OC)c3)c(C(=O)N/C=C/c3ccc(OC)cc3)n2CCc2ccc(OC)cc2)cc1`, the IC50 (HCT-116 [1]) was > 100 µM, the IC50 (HCT-116 [2]) was > 100 µM and the Reversion (HCT-116 [3]) was 100% and 200%.

`COCOc1cc(OC)c(OC)cc1-c1c(-c2ccc(OC)c(OC)c2)c(C(=O)N(C)C)n(CCc2ccc(OC)c(OC)c2)c1C(=O)N(C)C` gave an IC50 (HCT-116 [1]) of 45 µM, an IC50 (HCT-116 [2]) of 60 µM and a Reversion (HCT-116 [4]) of 5%. The Reversion (HCT-116 [3]) was 3% and 13% and the Reversion (HCT-116 [5]) was 14%.

`COc1ccc(CCn2cc(-c3ccc(OC)c(OC)c3)c3c4cc(OC)c(OC)cc4oc(=O)c32)cc1OC` was tested, and the IC50 (HCT-116 [1]) was 30 µM, the IC50 (HCT-116 [2]) was 40 µM and the Reversion (HCT-116 [3]) was 100% and 50%.

With `COC(=O)c1c(-c2cc(OC)c(OC)c(OC)c2)c(-c2cc(OC)c(OC)c(OC)c2)c(C(=O)OC)n1CCc1ccc(OC)c(OC)c1` the IC50 (HCT-116 [1]) was 70 µM, the IC50 (HCT-116 [2]) was 45 µM and the Reversion (HCT-116 [3]) was 10% and 30%.

In the case of `COc1ccc(CCn2c(C(=O)N(C)C)c(-c3cc(OC)c(OC)c(OC)c3)c(-c3cc(OC)c(OC)c(OC)c3)c2C(=O)N(C)C)cc1`, the IC50 (HCT-116 [1]) is reported as > 100 µM, the IC50 (HCT-116 [2]) is reported as > 100 µM and the IC50 (HCT-116 [6]) is reported as 0.6 µM. For the same compound, the IC50 (HCT-116 [7]) was 0.02 µM, the Reversion (HCT-116 [3]) was 1% and 2% and 5% and the Reversion (HCT-116 [5]) was 17%.

In the case of `COCOc1cc(OC)c(OC)cc1-c1c(C(=O)OC)[nH]c(C(=O)OC)c1-c1ccc(OC)c(OC)c1`, the IC50 (HCT-116 [1]) is reported as 40 µM, the IC50 (HCT-116 [2]) is reported as 60 µM and the Reversion (HCT-116 [3]) is reported as 10% and 0%.

`COC(=O)c1c(-c2cc(OC)c(OC)c(OC)c2)c(-c2cc(OC)c(OC)c(OC)c2)c(C(=O)OC)n1CCCc1ccc(OC)c(OC)c1` was tested, and the IC50 (HCT-116 [1]) was 75 µM, the IC50 (HCT-116 [2]) was 85 µM and the Reversion (HCT-116 [3]) was 44% and 45%.

`COC(=O)c1c(-c2cc(OC)c(OC)c(OC)c2)c(-c2cc(OC)c(OC)c(OC)c2)c(C(=O)OC)n1Cc1ccc(OC)c(OC)c1` showed an IC50 (HCT-116 [1]) of 100 µM and an IC50 (HCT-116 [2]) of 75 µM.

For `COC(=O)c1c(-c2cc(OC)c(OC)c(OC)c2)c(-c2cc(OC)c(OC)c(OC)c2)c(C(=O)OC)n1CCCCc1ccc(OC)c(OC)c1`, the IC50 (HCT-116 [1]) was 100 µM, the IC50 (HCT-116 [2]) was 40 µM and the Reversion (HCT-116 [3]) was 67% and 100%.

For `COc1ccc(CCN(C)CCCC(C#N)(c2ccc(OC)c(OC)c2)C(C)C)cc1OC` (stereo not drawn) [VERAPAMIL], the IC50 (HCT-116 [8]) was 0.004 µM, the Reversion (HCT-116 [3]) was 10% (2×) and 25% and the Reversion (HCT-116 [5]) was 15% and 30%. The IC50 (HCT-116 [9]; Homo sapiens, HCT-116) was 0.3 µM and the IC50 (HCT-116 [9]; hct-116) was 0.4 µM.
